# ChEMBL document CHEMBL1201862, “PubChem BioAssay data set” (2004)
#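 Five compound concentrations were applied to cells in 96-well plates for 48 hours; endpoints were derived by simple linear interpolation of the resulting dose-response curve. GI50 is the concentration that inhibits growth by half.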 The source made the active and inactive calls. Rule as the data show it: active = GI50 up to about 1.1 µM and inactive = higher.
# Tests used:
# Assay in all cases: DTP human tumour cell line panel, 48 h
# 786-0 = system: 786-0
# A498 = system: A498
# A549 = system: A549
# ACHN = system: ACHN
# CAKI-1 = system: CAKI-1
# CCRF-CEM = system: CCRF-CEM
# COLO 205 = system: COLO 205
# DLD-1 = system: DLD-1
# DMS-114 = system: DMS-114
# DMS-273 = system: DMS-273
# EKVX = system: EKVX
# HCT-116 = system: HCT-116
# HCT-15 = system: HCT-15
# HL-60 = system: HL-60
# HOP-18 = system: HOP-18
# HOP-62 = system: HOP-62
# HOP-92 = system: HOP-92
# HT-29 = system: HT-29
# IGROV-1 = system: IGROV-1
# K562 = system: K562
# KM-20L2 = system: KM-20L2
# KM12 = system: KM12
# LOX IMVI = system: LOX IMVI
# LXFL 529 = system: LXFL 529
# M14 = system: M14
# M19-MEL = system: M19-MEL
# MOLT-4 = system: MOLT-4
# Malme-3M = system: Malme-3M
# NCI-H23 = system: NCI-H23
# NCI-H460 = system: NCI-H460
# NCI-H522 = system: NCI-H522
# OVCAR-3 = system: OVCAR-3
# OVCAR-4 = system: OVCAR-4
# OVCAR-5 = system: OVCAR-5
# OVCAR-8 = system: OVCAR-8
# RPMI-8226 = system: RPMI-8226
# SF-268 = system: SF-268
# SF-295 = system: SF-295
# SF-539 = system: SF-539
# SK-MEL-28 = system: SK-MEL-28
# SK-MEL-2 = system: SK-MEL-2
# SK-MEL-5 = system: SK-MEL-5
# SK-OV-3 = system: SK-OV-3
# SN12C = system: SN12C
# SNB-19 = system: SNB-19
# SNB-75 = system: SNB-75
# SNB-78 = system: SNB-78
# SW-620 = system: SW-620
# TK-10 = system: TK-10
# U-251 = system: U-251
# UACC-257 = system: UACC-257
# UACC-62 = system: UACC-62
# UO-31 = system: UO-31
# XF498 = system: XF498
# HCC 2998 = system: HCC 2998
# NCI-H226 = system: NCI-H226
# RXF 393 = system: RXF 393
# RXF 631 = system: RXF 631
# SR = system: SR
smiles,measurement,setting,value
CCCN1CN(C(C(=O)N[C@@H]2C(=O)N3C(C(=O)O)=C(C)CSC23)c2ccc(O)cc2)CSC1=S (stereo not given in full),GI50,786-0,> 100 µM (inactive)
same,GI50,A498,> 100 µM (inactive)
same,GI50,A549,> 100 µM (inactive)
same,GI50,ACHN,> 100 µM (inactive)
same,GI50,CAKI-1,> 100 µM (inactive)
same,GI50,CCRF-CEM,66.8 µM (inactive)
same,GI50,COLO 205,55.6 µM (inactive)
same,GI50,DLD-1,> 100 µM (inactive)
same,GI50,DMS-114,52.4 µM (inactive)
same,GI50,DMS-273,> 100 µM (inactive)
same,GI50,EKVX,> 100 µM (inactive)
same,GI50,HCT-116,> 100 µM (inactive)
same,GI50,HCT-15,> 100 µM
same,GI50,HL-60,65.9 µM (inactive)
same,GI50,HOP-18,> 100 µM (inactive)
same,GI50,HOP-62,> 100 µM (inactive)
same,GI50,HOP-92,> 100 µM (inactive)
same,GI50,HT-29,> 100 µM (inactive)
same,GI50,IGROV-1,> 100 µM (inactive)
same,GI50,K562,80 µM (inactive)
same,GI50,KM-20L2,> 100 µM (inactive)
same,GI50,KM12,> 100 µM (inactive)
same,GI50,LOX IMVI,76.6 µM (inactive)
same,GI50,LXFL 529,> 100 µM (inactive)
same,GI50,M14,> 100 µM (inactive)
same,GI50,M19-MEL,> 100 µM (inactive)
same,GI50,MOLT-4,57.3 µM (inactive)
same,GI50,Malme-3M,> 100 µM (inactive)
same,GI50,NCI-H23,> 100 µM (inactive)
same,GI50,NCI-H460,63.1 µM (inactive)
same,GI50,NCI-H522,23.6 µM (inactive)
same,GI50,OVCAR-3,45.5 µM (inactive)
same,GI50,OVCAR-4,> 100 µM (inactive)
same,GI50,OVCAR-5,> 100 µM (inactive)
same,GI50,OVCAR-8,> 100 µM (inactive)
same,GI50,RPMI-8226,72.1 µM (inactive)
same,GI50,SF-268,> 100 µM (inactive)
same,GI50,SF-295,> 100 µM (inactive)
same,GI50,SF-539,> 100 µM (inactive)
same,GI50,SK-MEL-28,> 100 µM (inactive)
same,GI50,SK-MEL-2,> 100 µM (inactive)
same,GI50,SK-MEL-5,> 100 µM (inactive)
same,GI50,SK-OV-3,> 100 µM (inactive)
same,GI50,SN12C,> 100 µM (inactive)
same,GI50,SNB-19,> 100 µM (inactive)
same,GI50,SNB-75,> 100 µM (inactive)
same,GI50,SNB-78,> 100 µM (inactive)
same,GI50,SW-620,14.2 µM (inactive)
same,GI50,TK-10,> 100 µM (inactive)
same,GI50,U-251,97.5 µM (inactive)
same,GI50,UACC-257,> 100 µM (inactive)
same,GI50,UACC-62,> 100 µM (inactive)
same,GI50,UO-31,> 100 µM (inactive)
same,GI50,XF498,> 100 µM (inactive)
CC(C)(CN1CCOCC1)C(=O)/C=C/c1ccc(/C=C/C(=O)C(C)(C)CN2CCOCC2)cc1,GI50,786-0,2 µM (inactive)
same,GI50,A498,1.97 µM (inactive)
same,GI50,A549,2.89 µM (inactive)
same,GI50,ACHN,1.52 µM (inactive)
same,GI50,CAKI-1,1.4 µM (inactive)
same,GI50,CCRF-CEM,1.36 µM (inactive)
same,GI50,COLO 205,1.64 µM (inactive)
same,GI50,DLD-1,0.338 µM (active)
same,GI50,DMS-114,0.757 µM (active)
same,GI50,DMS-273,0.457 µM (active)
same,GI50,EKVX,1.65 µM (inactive)
same,GI50,HCC 2998,1.83 µM (inactive)
same,GI50,HCT-116,0.408 µM (active)
same,GI50,HCT-15,0.297 µM
same,GI50,HL-60,1.45 µM (inactive)
same,GI50,HOP-62,2.46 µM (inactive)
same,GI50,HOP-92,2.33 µM (inactive)
same,GI50,HT-29,0.467 µM (active)
same,GI50,IGROV-1,2.09 µM (inactive)
same,GI50,K562,0.239 µM (active)
same,GI50,KM-20L2,1.36 µM (inactive)
same,GI50,KM12,1.54 µM (inactive)
same,GI50,LOX IMVI,0.393 µM (active)
same,GI50,LXFL 529,1.1 µM (active)
same,GI50,M14,1.69 µM (inactive)
same,GI50,MOLT-4,0.281 µM (active)
same,GI50,Malme-3M,2.12 µM (inactive)
same,GI50,NCI-H226,2.29 µM (inactive)
same,GI50,NCI-H23,1.58 µM (inactive)
same,GI50,NCI-H460,3.5 µM (inactive)
same,GI50,NCI-H522,0.278 µM (active)
same,GI50,OVCAR-3,1.07 µM (active)
same,GI50,OVCAR-4,0.942 µM (active)
same,GI50,OVCAR-5,1.8 µM (inactive)
same,GI50,OVCAR-8,1.45 µM (inactive)
same,GI50,RPMI-8226,2.7 µM (inactive)
same,GI50,RXF 393,1.83 µM (inactive)
same,GI50,RXF 631,1.36 µM (inactive)
same,GI50,SF-268,1.59 µM (inactive)
same,GI50,SF-295,2.21 µM (inactive)
same,GI50,SF-539,2.07 µM (inactive)
same,GI50,SK-MEL-28,1.77 µM (inactive)
same,GI50,SK-MEL-5,1.79 µM (inactive)
same,GI50,SK-OV-3,3.85 µM (inactive)
same,GI50,SN12C,1.35 µM (inactive)
same,GI50,SNB-19,1.55 µM (inactive)
same,GI50,SNB-75,1.94 µM (inactive)
same,GI50,SNB-78,1.21 µM (inactive)
same,GI50,SW-620,1.01 µM (active)
same,GI50,TK-10,1.86 µM (inactive)
same,GI50,U-251,1.24 µM (inactive)
same,GI50,UACC-257,1.99 µM (inactive)
same,GI50,UACC-62,1.56 µM (inactive)
same,GI50,UO-31,1.75 µM (inactive)
same,GI50,XF498,1.42 µM (inactive)
C#CC1(O)CCC2[C@@H]3CCc4cc(Oc5nc(F)nc(-c6c7ccccc7cn6C)n5)ccc4C3CC[C@@]21C (stereo not given in full),GI50,786-0,> 100 µM (inactive)
same,GI50,A498,> 100 µM (inactive)
same,GI50,A549,> 100 µM (inactive)
same,GI50,ACHN,> 100 µM (inactive)
same,GI50,CAKI-1,> 100 µM (inactive)
same,GI50,CCRF-CEM,30.7 µM (inactive)
same,GI50,COLO 205,> 78.9 µM (inactive)
same,GI50,DLD-1,> 48.2 µM (inactive)
same,GI50,DMS-114,35.8 µM (inactive)
same,GI50,DMS-273,> 66.1 µM (inactive)
same,GI50,EKVX,> 100 µM (inactive)
same,GI50,HCC 2998,> 100 µM (inactive)
same,GI50,HCT-116,> 100 µM (inactive)
same,GI50,HCT-15,> 72.3 µM
same,GI50,HL-60,> 70.5 µM (inactive)
same,GI50,HOP-18,> 100 µM (inactive)
same,GI50,HOP-62,> 100 µM (inactive)
same,GI50,HOP-92,> 100 µM (inactive)
same,GI50,HT-29,> 100 µM (inactive)
same,GI50,K562,> 67 µM (inactive)
same,GI50,KM-20L2,> 100 µM (inactive)
same,GI50,KM12,> 100 µM (inactive)
same,GI50,LOX IMVI,> 100 µM (inactive)
same,GI50,LXFL 529,> 100 µM (inactive)
same,GI50,M14,> 100 µM (inactive)
same,GI50,M19-MEL,> 100 µM (inactive)
same,GI50,MOLT-4,44.9 µM (inactive)
same,GI50,Malme-3M,> 100 µM (inactive)
same,GI50,NCI-H226,> 100 µM (inactive)
same,GI50,NCI-H23,> 100 µM (inactive)
same,GI50,NCI-H460,> 79.3 µM (inactive)
same,GI50,NCI-H522,89.3 µM (inactive)
same,GI50,OVCAR-3,> 100 µM (inactive)
same,GI50,OVCAR-4,> 100 µM (inactive)
same,GI50,OVCAR-5,> 100 µM (inactive)
same,GI50,OVCAR-8,> 100 µM (inactive)
same,GI50,RPMI-8226,> 47.4 µM (inactive)
same,GI50,RXF 393,> 93.1 µM (inactive)
same,GI50,SF-268,> 88.1 µM (inactive)
same,GI50,SF-295,> 100 µM (inactive)
same,GI50,SF-539,> 100 µM (inactive)
same,GI50,SK-MEL-28,> 100 µM (inactive)
same,GI50,SK-MEL-2,> 100 µM (inactive)
same,GI50,SK-OV-3,> 100 µM (inactive)
same,GI50,SN12C,> 100 µM (inactive)
same,GI50,SNB-19,> 100 µM (inactive)
same,GI50,SNB-75,> 91.2 µM (inactive)
same,GI50,SNB-78,> 100 µM (inactive)
same,GI50,SR,> 46.3 µM (inactive)
same,GI50,SW-620,55.5 µM (inactive)
same,GI50,TK-10,> 100 µM (inactive)
same,GI50,U-251,> 100 µM (inactive)
same,GI50,UACC-257,> 100 µM (inactive)
same,GI50,UACC-62,> 100 µM (inactive)
same,GI50,UO-31,> 62.1 µM (inactive)
same,GI50,XF498,> 100 µM (inactive)
